Among the data in US6476030B1, “Pyrazolo-triazine derivatives as ligands for GABA receptors” (Merck Sharp & Dohme Ltd., priority 1998, dated 2002) are melting point values, retold here.

Compound `Fc1ccccc1-c1c(OCc2nc3n(n2)CCCC3)nn2c(-c3ccccc3F)nncc12` [Example 83, 3,7-bis(2-Fluorophenyl)-2-(5,6,7,8-tetrahydro[1,2,4]triazolo[1,5-a]pyridin-2-ylmethoxy)pyrazolo[1,5-d][1,2,4]triazine] yielded a melting point of 150 to 152 °C.
For `Fc1ccccc1-c1c(OCc2ncnn2CC(F)F)nn2c(-c3ccccc3F)nncc12` [Example 85, 2-[2-(2,2-Difluoroethyl)-2H-[1,2,4]triazol-3-ylmethoxy]-3,7-bis(2-fluorophenyl)pyrazolo[1,5-d][1,2,4]triazine] the value was 179 to 180 °C; for `FCCn1ncnc1COc1nn2c(-c3ccccc3F)nncc2c1-c1ccccc1F` [Example 86, 2-[2-(2-Fluoroethyl)-2H-[1,2,4]triazol-3-ylmethoxy]-3,7-bis(2-fluorophenyl)-pyrazolo[1,5-d][1,2,4]triazine], 172 to 173 °C.
In the case of `Cn1ncnc1COc1nn2c(-c3ccccc3Cl)nncc2c1-c1ccccc1F` [Example 88, 7-(2-Chlorophenyl)-3-(2-fluorophenyl)-2-(2-methyl-2H-[1,2,4]triazol-3-ylmethoxy)pyrazolo[1,5-d][1,2,4]triazine] it was 155 to 157 °C; in that of `Cn1ncnc1COc1nn2c(C3CC3)nncc2c1-c1ccccc1F` [Example 89, 7-Cyclopropyl-3-(2-fluorophenyl)-2-(2-methyl-2H-[1,2,4]triazol-3-ylmethoxy)pyrazolo[1,5-d][1,2,4]triazine], 97 to 99 °C; in that of `Cc1cc(COc2nn3c(-c4ccccc4F)nncc3c2-c2ccccc2F)nn1C` [Example 90, 3,7-bis(2-Fluorophenyl)-2-(1,5-dimethyl-1H-pyrazol-3-ylmethoxy)-pyrazolo[1,5-d][1,2,4]triazine], 183 °C.
For `CCn1ncnc1COc1nn2c(-c3ccccc3F)nncc2c1-c1ccco1` [Example 91, 2-(2-Ethyl-2H-[1,2,4]triazol-3-ylmethoxy)-7-(2-fluorophenyl)-3-(furan-2-yl)pyrazolo[1,5-d][1,2,4]triazine], the melting point lay in the range of 182 to 183 °C.
In the case of `CCn1ncnc1COc1nn2c(-c3ccccc3F)nncc2c1-c1cccs1` [Example 92, 2-(2-Ethyl-2H-[1,2,4]triazol-3-ylmethoxy)-7-(2-fluorophenyl)-3-(thien-2-yl)pyrazolo[1,5-d][1,2,4]triazine] it was 190 to 192 °C; in that of `CCn1ncnc1COc1nn2c(-c3ccccc3F)nncc2c1-c1ccsc1` [Example 93, 2-(2-Ethyl-2H-[1,2,4]triazol-3-ylmethoxy)-7-(2-fluorophenyl)-3-(thien-3-yl)pyrazolo[1,5-d][1,2,4]triazine], 187 to 193 °C; in that of `Cn1ncnc1COc1nn2c(-c3ccccc3F)nncc2c1-c1cccc(-c2cccnc2)c1` [Example 95, 7-(2-Fluorophenyl)-2-(2-methyl-2H-[1,2,4]triazol-3-ylmethoxy)-3-[3-(pyridin-3-yl)phenyl]pyrazolo[1,5-d][1,2,4]triazine], 157 to 163 °C.
In the case of `Cn1ncnc1COc1nn2c(-c3ccccc3F)nncc2c1I` [Example 96, 7-(2-Fluorophenyl)-3-iodo-2-(2-methyl-2H-[1,2,4]triazol-3-ylmethoxy)-pyrazolo[1,5-d][1,2,4]triazine] it was 218 to 219 °C; in that of `Cn1ncnc1COc1nn2c(-c3ccccc3F)nncc2c1-c1cccc(C#N)c1` [Example 97, 3-(3-Cyanophenyl)-7-(2-fluorophenyl)-2-(2-methyl-2H-[1,2,4]triazol-3-ylmethoxy)pyrazolo[1,5-d][1,2,4]triazine], 194 to 196 °C.

What is called melting point is the temperature, or range, at which the solid turns liquid.
